{
  "source": "patent US12077503B2",
  "about": "“Substituted cyclic amides and their use as herbicides” (FMC CORPORATION, priority 2015, dated 2024)",
  "format_in_all_cases": "in vivo",
  "key": {"Kochia (Kochia scoparia) [1]": {"test_system": "Kochia (Kochia scoparia)", "experiment": "Test A preemergence", "conditions": "Bassia scoparia, pre-emergence, 240 h, preemergence, 0 to 100 scale where 0 is no effect and 100 is complete control, read-out: Kochia plant response rating", "summary_of_the_method": "(§1)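 Greenhouse, ~10 d after spray; visual injury vs untreated controls, 0 = no effect, 100 = complete control. Preemergence: directed soil spray over planted seeds. Postemergence: plants 2–10 cm, 1–2 leaf stage. Loam/sand blend. Compound in non-phytotoxic solvent with surfactant.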"}, "[2]": {"test_system": "barnyardgrass (Echinochloa crus-galli)", "experiment": "Test A preemergence", "conditions": "Echinochloa crus-galli, pre-emergence, 240 h, preemergence, 0 to 100 scale where 0 is no effect and 100 is complete control, read-out: Barnyardgrass plant response rating", "summary_of_the_method": "as §1"}, "[3]": {"test_system": "giant foxtail (Setaria faberii)", "experiment": "Test A preemergence", "conditions": "Setaria faberi, pre-emergence, 240 h, preemergence, 0 to 100 scale where 0 is no effect and 100 is complete control, read-out: Foxtail, Giant plant response rating", "summary_of_the_method": "as §1"}, "[4]": {"test_system": "pigweed (Amaranthus retroflexus)", "experiment": "Test A preemergence", "conditions": "Amaranthus retroflexus, pre-emergence, 240 h, preemergence, 0 to 100 scale where 0 is no effect and 100 is complete control, read-out: Pigweed plant response rating"}, "[5]": {"test_system": "ragweed (common ragweed, Ambrosia elatior)", "experiment": "Test A preemergence", "conditions": "Ambrosia artemisiifolia, pre-emergence, 240 h, preemergence, 0 to 100 scale where 0 is no effect and 100 is complete control, read-out: Ragweed plant response rating", "summary_of_the_method": "as §1"}, "[6]": {"test_system": "ryegrass, Italian (Italian ryegrass, Lolium multiflorum)", "experiment": "Test A preemergence", "conditions": "Lolium multiflorum, pre-emergence, 240 h, preemergence, 0 to 100 scale where 0 is no effect and 100 is complete control, read-out: Ryegrass, Italian plant response rating", "summary_of_the_method": "as §1"}, "[7]": {"test_system": "Galium (catchweed bedstraw, Galium aparine)", "experiment": "Test A postemergence", "conditions": "Galium, post-emergence, 240 h, postemergence", "summary_of_the_method": "as §1"}, "Kochia (Kochia scoparia) [8]": {"test_system": "Kochia (Kochia scoparia)", "experiment": "Test A postemergence", "conditions": "Bassia scoparia, post-emergence, 240 h, postemergence", "summary_of_the_method": "as §1"}, "[9]": {"test_system": "barnyardgrass (Echinochloa crus-galli)", "experiment": "Test A postemergence", "conditions": "Echinochloa crus-galli, post-emergence, 240 h, postemergence", "summary_of_the_method": "as §1"}, "[10]": {"test_system": "blackgrass (Alopecurus myosuroides)", "experiment": "Test A postemergence", "conditions": "Alopecurus myosuroides, post-emergence, 240 h, postemergence", "summary_of_the_method": "as §1"}, "corn (Zea mays)": {"test_system": "corn (Zea mays)", "experiment": "Test A postemergence", "conditions": "Zea mays, post-emergence, 240 h, postemergence", "summary_of_the_method": "as §1"}, "[11]": {"test_system": "giant foxtail (Setaria faberii)", "experiment": "Test A postemergence", "conditions": "Setaria faberi, post-emergence, 240 h, postemergence", "summary_of_the_method": "as §1"}, "[12]": {"test_system": "pigweed (Amaranthus retroflexus)", "experiment": "Test A postemergence", "conditions": "Amaranthus retroflexus, post-emergence, 240 h, postemergence", "summary_of_the_method": "as §1"}, "[13]": {"test_system": "ragweed (common ragweed, Ambrosia elatior)", "experiment": "Test A postemergence", "conditions": "Ambrosia artemisiifolia, post-emergence, 240 h, postemergence", "summary_of_the_method": "as §1"}, "[14]": {"test_system": "ryegrass, Italian (Italian ryegrass, Lolium multiflorum)", "experiment": "Test A postemergence", "conditions": "Lolium multiflorum, post-emergence, 240 h, postemergence", "summary_of_the_method": "as §1"}, "[15]": {"test_system": "wheat (Triticum aestivum)", "experiment": "Test A postemergence", "conditions": "Triticum aestivum, post-emergence, 240 h, postemergence", "summary_of_the_method": "as §1"}},
  "data": [
    {"compound": "O=C1NC[C@H](c2cccc(I)c2)[C@H]1C(=O)Nc1ccccc1F", "note": "[Compound 1160]", "values": [
      {"measurement": "pest or weed control at 125 g/ha", "setting": "Kochia (Kochia scoparia) [1]; 125 g ai/ha, approx. 10 d", "result": 0, "unit": "%"},
      {"measurement": "pest or weed control at 500 g/ha", "setting": "Kochia (Kochia scoparia) [1]; 500 g ai/ha", "result": 50, "unit": "%"},
      {"measurement": "pest or weed control at 125 g/ha", "setting": "[2]; 125 g ai/ha, approx. 10 d", "result": 90, "unit": "%"},
      {"measurement": "pest or weed control at 500 g/ha", "setting": "[2]; 500 g ai/ha", "result": 90, "unit": "%"},
      {"measurement": "pest or weed control at 125 g/ha", "setting": "[3]; 125 g ai/ha, approx. 10 d", "result": 90, "unit": "%"},
      {"measurement": "pest or weed control at 500 g/ha", "setting": "[3]; 500 g ai/ha", "result": 90, "unit": "%"},
      {"measurement": "pest or weed control at 125 g/ha", "setting": "[4]; 125 g ai/ha, approx. 10 d", "result": 0, "unit": "%"},
      {"measurement": "pest or weed control at 500 g/ha", "setting": "[4]; 500 g ai/ha", "result": 20, "unit": "%"},
      {"measurement": "pest or weed control at 125 g/ha", "setting": "[5]; 125 g ai/ha, approx. 10 d", "result": 0, "unit": "%"},
      {"measurement": "pest or weed control at 500 g/ha", "setting": "[5]; 500 g ai/ha", "result": 0, "unit": "%"},
      {"measurement": "pest or weed control at 125 g/ha", "setting": "[6]; 125 g ai/ha, approx. 10 d", "result": 0, "unit": "%"},
      {"measurement": "pest or weed control at 500 g/ha", "setting": "[6]; 500 g ai/ha", "result": 0, "unit": "%"},
      {"measurement": "pest or weed control at 125 g/ha", "setting": "[7]; 125 g ai/ha, visual injury vs untreated controls after approx. 10 d, 0 = no effect, 100 = complete control, read-out: Galium plant response rating (0 to 100 scale)", "result": 0, "unit": "%"},
      {"measurement": "pest or weed control at 500 g/ha", "setting": "[7]; 500 g ai/ha, 0 to 100 scale, 0 is no effect, 100 is complete control, read-out: Galium plant response rating", "result": 60, "unit": "%"},
      {"measurement": "pest or weed control at 125 g/ha", "setting": "Kochia (Kochia scoparia) [8]; 125 g ai/ha, visual injury vs untreated controls after approx. 10 d, 0 = no effect, 100 = complete control, read-out: Kochia plant response rating (0 to 100 scale)", "result": 0, "unit": "%"},
      {"measurement": "pest or weed control at 500 g/ha", "setting": "Kochia (Kochia scoparia) [8]; 500 g ai/ha, 0 to 100 scale, 0 is no effect, 100 is complete control, read-out: Kochia plant response rating", "result": 20, "unit": "%"},
      {"measurement": "pest or weed control at 125 g/ha", "setting": "[9]; 125 g ai/ha, visual injury vs untreated controls after approx. 10 d, 0 = no effect, 100 = complete control, read-out: Barnyardgrass plant response rating (0 to 100 scale)", "result": 80, "unit": "%"},
      {"measurement": "pest or weed control at 500 g/ha", "setting": "[9]; 500 g ai/ha, 0 to 100 scale, 0 is no effect, 100 is complete control, read-out: Barnyardgrass plant response rating", "result": 90, "unit": "%"},
      {"measurement": "pest or weed control at 125 g/ha", "setting": "[10]; 125 g ai/ha, visual injury vs untreated controls after approx. 10 d, 0 = no effect, 100 = complete control, read-out: Blackgrass plant response rating (0 to 100 scale)", "result": 0, "unit": "%"},
      {"measurement": "pest or weed control at 500 g/ha", "setting": "[10]; 500 g ai/ha, 0 to 100 scale, 0 is no effect, 100 is complete control, read-out: Blackgrass plant response rating", "result": 50, "unit": "%"},
      {"measurement": "plant injury at 125 g/ha", "setting": "corn (Zea mays); 125 g ai/ha, visual injury vs untreated controls after approx. 10 d, 0 = no effect, 100 = complete control, read-out: Corn plant response rating (0 to 100 scale)", "result": 40, "unit": "%"},
      {"measurement": "plant injury at 500 g/ha", "setting": "corn (Zea mays); 500 g ai/ha, 0 to 100 scale, 0 is no effect, 100 is complete control, read-out: Corn plant response rating", "result": 80, "unit": "%"},
      {"measurement": "pest or weed control at 125 g/ha", "setting": "[11]; 125 g ai/ha, visual injury vs untreated controls after approx. 10 d, 0 = no effect, 100 = complete control, read-out: Foxtail, Giant plant response rating (0 to 100 scale)", "result": 80, "unit": "%"},
      {"measurement": "pest or weed control at 500 g/ha", "setting": "[11]; 500 g ai/ha, 0 to 100 scale, 0 is no effect, 100 is complete control, read-out: Foxtail, Giant plant response rating", "result": 90, "unit": "%"},
      {"measurement": "pest or weed control at 125 g/ha", "setting": "[12]; 125 g ai/ha, visual injury vs untreated controls after approx. 10 d, 0 = no effect, 100 = complete control, read-out: Pigweed plant response rating (0 to 100 scale)", "result": 0, "unit": "%"},
      {"measurement": "pest or weed control at 500 g/ha", "setting": "[12]; 500 g ai/ha, 0 to 100 scale, 0 is no effect, 100 is complete control, read-out: Pigweed plant response rating", "result": 0, "unit": "%"},
      {"measurement": "pest or weed control at 125 g/ha", "setting": "[13]; 125 g ai/ha, visual injury vs untreated controls after approx. 10 d, 0 = no effect, 100 = complete control, read-out: Ragweed plant response rating (0 to 100 scale)", "result": 0, "unit": "%"},
      {"measurement": "pest or weed control at 500 g/ha", "setting": "[13]; 500 g ai/ha, 0 to 100 scale, 0 is no effect, 100 is complete control, read-out: Ragweed plant response rating", "result": 0, "unit": "%"},
      {"measurement": "pest or weed control at 125 g/ha", "setting": "[14]; 125 g ai/ha, visual injury vs untreated controls after approx. 10 d, 0 = no effect, 100 = complete control, read-out: Ryegrass, Italian plant response rating (0 to 100 scale)", "result": 20, "unit": "%"},
      {"measurement": "pest or weed control at 500 g/ha", "setting": "[14]; 500 g ai/ha, 0 to 100 scale, 0 is no effect, 100 is complete control, read-out: Ryegrass, Italian plant response rating", "result": 20, "unit": "%"},
      {"measurement": "plant injury at 125 g/ha", "setting": "[15]; 125 g ai/ha, visual injury vs untreated controls after approx. 10 d, 0 = no effect, 100 = complete control, read-out: Wheat plant response rating (0 to 100 scale)", "result": 20, "unit": "%"},
      {"measurement": "plant injury at 500 g/ha", "setting": "[15]; 500 g ai/ha, 0 to 100 scale, 0 is no effect, 100 is complete control, read-out: Wheat plant response rating", "result": 50, "unit": "%"}
    ]}
  ]
}
